Calls of active or inactive are those of the source. The rule behind the calls is not given here.
Test system: rodent lifetime carcinogenesis bioassay, tumor incidence TD50
Experiment: chronic cancer bioassays in animals – CPDB, compiled studies (AID 1745844)

CCc1cccc2c3c([nH]c12)C(CC)(CC(=O)O)OCC3 (stereo not given)
inactive: carcinogen call (mouse, strain Charles River CD1, females, in feed, site: any site (literature study), lesion: benign tumor, dosed 78 weeks, study length 78 weeks) negative | TD50 (mouse, strain Charles River CD1, females, in feed, site: any site (literature study), lesion: malignant tumor, dosed 78 weeks, study length 78 weeks) 336 mg/kg/day | carcinogen call (mouse, strain Charles River CD1, females, in feed, site: any site (literature study), lesion: several types, types named in the paper, dosed 78 weeks, study length 78 weeks) negative | carcinogen call (mouse, strain Charles River CD1, females, in feed, site: liver, lesion: hepatocellular adenoma, dosed 78 weeks, study length 78 weeks) negative | carcinogen call (mouse, strain Charles River CD1, females, in feed, site: lung, lesion: alveolar/bronchiolar carcinoma, dosed 78 weeks, study length 78 weeks) negative | carcinogen call (mouse, strain Charles River CD1, males, in feed, site: any site (literature study), lesion: benign tumor, dosed 78 weeks, study length 78 weeks) negative | carcinogen call (mouse, strain Charles River CD1, males, in feed, site: any site (literature study), lesion: malignant tumor, dosed 78 weeks, study length 78 weeks) negative | carcinogen call (mouse, strain Charles River CD1, males, in feed, site: any site (literature study), lesion: several types, types named in the paper, dosed 78 weeks, study length 78 weeks) negative | carcinogen call (mouse, strain Charles River CD1, males, in feed, site: liver, lesion: hepatocellular adenoma, dosed 78 weeks, study length 78 weeks) negative | carcinogen call (mouse, strain Charles River CD1, males, in feed, site: liver, lesion: hepatocellular carcinoma, dosed 78 weeks, study length 78 weeks) negative | carcinogen call (rat, strain Charles River CD (Sprague-Dawley), females, in feed, site: any site (literature study), lesion: benign tumor, dosed 104 weeks, study length 104 weeks) negative | carcinogen call (rat, strain Charles River CD (Sprague-Dawley), females, in feed, site: any site (literature study), lesion: malignant tumor, dosed 104 weeks, study length 104 weeks) negative | carcinogen call (rat, strain Charles River CD (Sprague-Dawley), females, in feed, site: any site (literature study), lesion: several types, types named in the paper, dosed 104 weeks, study length 104 weeks) negative | carcinogen call (rat, strain Charles River CD (Sprague-Dawley), females, in feed, site: liver, lesion: hepatocellular carcinoma, dosed 104 weeks, study length 104 weeks) negative | TD50 (rat, strain Charles River CD (Sprague-Dawley), females, in feed, site: liver, lesion: neoplastic nodule, dosed 104 weeks, study length 104 weeks) 1010 mg/kg/day | carcinogen call (rat, strain Charles River CD (Sprague-Dawley), males, in feed, site: any site (literature study), lesion: benign tumor, dosed 104 weeks, study length 104 weeks) negative | carcinogen call (rat, strain Charles River CD (Sprague-Dawley), males, in feed, site: any site (literature study), lesion: malignant tumor, dosed 104 weeks, study length 104 weeks) negative | carcinogen call (rat, strain Charles River CD (Sprague-Dawley), males, in feed, site: any site (literature study), lesion: several types, types named in the paper, dosed 104 weeks, study length 104 weeks) negative | carcinogen call (rat, strain Charles River CD (Sprague-Dawley), males, in feed, site: liver, lesion: hepatocellular carcinoma, dosed 104 weeks, study length 104 weeks) negative | TD50 (rat, strain Charles River CD (Sprague-Dawley), males, in feed, site: liver, lesion: neoplastic nodule, dosed 104 weeks, study length 104 weeks) 1400 mg/kg/day

N#CS
inactive: carcinogen call (rat, strain Fischer 344, females, in drinking water, site: liver, lesion: one or several types, types not named, dosed 112 weeks, study length 130 weeks) negative | TD50 (rat, strain Fischer 344, males, in drinking water, site: liver, lesion: one or several types, types not named, dosed 112 weeks, study length 130 weeks) 2760 mg/kg/day | TD50 (rat, strain Fischer 344, males, in drinking water, site: skin and subcutis, lesion: one or several types, types not named, dosed 112 weeks, study length 130 weeks) 224 mg/kg/day

OCC(O)[C@@H](O)[C@H](O)[C@H](O)CO[C@H]1O[C@H](CO)[C@@H](O)[C@H](O)[C@H]1O (stereo not given in full)
inactive: TD50 (mouse, strain Cpb:Swiss random, females, in feed, site: any site (literature study), lesion: one or several types, types not named, dosed 104 weeks, study length 104 weeks) 83400 mg/kg/day | carcinogen call (mouse, strain Cpb:Swiss random, females, in feed, site: liver, lesion: one or several types, types not named, dosed 104 weeks, study length 104 weeks) negative | TD50 (mouse, strain Cpb:Swiss random, females, in feed, site: lung, lesion: alveolar-cell tumor, dosed 104 weeks, study length 104 weeks) 92600 mg/kg/day | carcinogen call (mouse, strain Cpb:Swiss random, males, in feed, site: any site (literature study), lesion: one or several types, types not named, dosed 94 weeks, study length 94 weeks) negative | carcinogen call (mouse, strain Cpb:Swiss random, males, in feed, site: liver, lesion: hepatocellular carcinoma, dosed 94 weeks, study length 94 weeks) negative | carcinogen call (mouse, strain Cpb:Swiss random, males, in feed, site: liver, lesion: neoplastic nodule, dosed 94 weeks, study length 94 weeks) negative | TD50 (mouse, strain Cpb:Swiss random, males, in feed, site: lung, lesion: alveolar-cell tumor, dosed 94 weeks, study length 94 weeks) 26200 mg/kg/day

C[C@]12CCC(=O)C=C1CC[C@@H]1[C@@H]2[C@@H](O)C[C@@]2(C)[C@H]1CC[C@]2(O)C(=O)CO
inactive: carcinogen call (rat, strain Sprague-Dawley, females, by gavage, site: any site (literature study), lesion: malignant tumor, dosed 110 weeks, study length 110 weeks) negative | carcinogen call (rat, strain Sprague-Dawley, males, by gavage, site: any site (literature study), lesion: malignant tumor, dosed 104 weeks, study length 104 weeks) negative

[Ge+4].[Na+].[Na+].[O-2].[O-2].[O-2]
inactive: carcinogen call (mouse, strain Charles River CD1, both sexes, in drinking water, site: any site (literature study), lesion: benign tumor, dosed 104 weeks, study length 104 weeks) negative | carcinogen call (mouse, strain Charles River CD1, both sexes, in drinking water, site: any site (literature study), lesion: malignant tumor, dosed 104 weeks, study length 104 weeks) negative | carcinogen call (mouse, strain Charles River CD1, both sexes, in drinking water, site: any site (literature study), lesion: several types, types named in the paper, dosed 104 weeks, study length 104 weeks) negative | carcinogen call (mouse, strain Charles River CD1, both sexes, in drinking water, site: liver, lesion: several types, types named in the paper, dosed 104 weeks, study length 104 weeks) negative | carcinogen call (mouse, strain Charles River CD1, both sexes, in drinking water, site: lung, lesion: several types, types named in the paper, dosed 104 weeks, study length 104 weeks) negative | carcinogen call (rat, strain Long-Evans BLU:(LE), both sexes, in drinking water, site: any site (literature study), lesion: malignant tumor, dosed 149 weeks, study length 149 weeks) negative | carcinogen call (rat, strain Long-Evans BLU:(LE), both sexes, in drinking water, site: any site (literature study), lesion: one or several types, types not named, dosed 149 weeks, study length 149 weeks) negative | carcinogen call (rat, strain Long-Evans BLU:(LE), both sexes, in drinking water, site: liver, lesion: one or several types, types not named, dosed 149 weeks, study length 149 weeks) negative
